Assay results reported in patent US20110288082A1, “METHODS AND COMPOSITIONS FOR INHIBITION OF THE TRANSITIONAL ENDOPLASMIC RETICULUM ATPASE” (priority 2010, published 2011).
Values joined by “and” are separate entries in the source; they are usually repeats but may differ in a detail not shown here. Identical values can stand only once. Like-named read-outs stand apart in the source and are kept apart here.

Tests used:
p97 = p97 (Homo sapiens, UniProt P55072); assay: p97 ATPase assay (Kinase Glo Plus; biomol green for compounds that interfere with luciferase); type: biochemical
p97, sequence (P55072 2-806 limits assumed): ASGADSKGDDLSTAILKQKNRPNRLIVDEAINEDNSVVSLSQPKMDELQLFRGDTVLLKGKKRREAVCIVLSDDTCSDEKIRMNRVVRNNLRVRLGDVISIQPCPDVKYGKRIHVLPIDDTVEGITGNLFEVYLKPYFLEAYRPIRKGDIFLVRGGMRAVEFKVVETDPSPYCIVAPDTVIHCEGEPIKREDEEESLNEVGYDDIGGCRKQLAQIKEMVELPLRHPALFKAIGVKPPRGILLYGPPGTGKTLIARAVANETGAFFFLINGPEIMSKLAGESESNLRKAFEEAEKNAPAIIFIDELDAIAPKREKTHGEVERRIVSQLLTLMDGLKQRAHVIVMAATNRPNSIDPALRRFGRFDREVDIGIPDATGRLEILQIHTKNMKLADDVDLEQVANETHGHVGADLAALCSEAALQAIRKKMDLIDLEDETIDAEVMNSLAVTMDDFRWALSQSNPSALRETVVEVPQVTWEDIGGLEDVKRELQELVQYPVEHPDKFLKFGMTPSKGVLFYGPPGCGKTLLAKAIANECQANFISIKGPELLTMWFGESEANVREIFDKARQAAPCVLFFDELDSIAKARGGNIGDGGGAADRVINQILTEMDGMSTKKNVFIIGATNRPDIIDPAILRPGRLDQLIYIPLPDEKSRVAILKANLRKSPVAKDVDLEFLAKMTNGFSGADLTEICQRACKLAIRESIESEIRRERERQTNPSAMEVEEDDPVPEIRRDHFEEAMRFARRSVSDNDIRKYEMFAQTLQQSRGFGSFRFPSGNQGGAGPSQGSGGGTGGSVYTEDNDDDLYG
Procedure: Assay Buffer (20 μL of 2.5× concentration, where 1×=50 mM Tris pH 7.4, 20 mM MgCl2, 1 mM EDTA, 0.5 mM TCEP) was dispensed into each well of a 96 well plate. Purified p97 (25 μL of 50 μM) was diluted in 975 μL, of 1× Assay Buffer and 10 μL was dispensed in each well. Test compound (10 μL) or 5% DMSO (10 μL) was then added to each well and the plate was incubated at room temperature for 10 min. The ATPase assay was carried out by adding to each well 10 μL of 500 μM ATP (pH 7.5), incubating at room temperature for 60 min, and then adding 50 μL Kinase Glo Plus reagent (Promega) followed by a final 10 min incubation at room temperature in the dark. Luminescence was read on an Analyst AD (Molecular Devices). Compounds were assayed at a range of concentrations (0, 0.048, 0.24, 1.2, 6, 30 μM) in triplicate. The percent of remaining activity for each reaction was calculated using the following mathematical expression: ((Test Compound-High Control)/(Low Control-High Control))*100. Test_Compound is defined as wells containing test compound, Low_Control is defined as wells containing DMSO, High_Control is defined as wells containing no p97 protein. […] The result was expressed as mean +/− standard error. For assays with Myriad 12 and 19, 100 μL of biomol green reagent (Enzo Life Sciences) was added to each well instead of kinase Glo Plus (Promega) and absorbance at 630 nm was measured. This was done because these compounds interfered with luciferase activity. […]

[1] = test system: p97-dependent Ub^G76V-GFP degradation in HeLa cells; assay: Ub^G76V-GFP degradation (turn-over) assay; type: cell-based, human
Procedure: Ub^G76V-GFP Degradation Assay
Two GFP images with 100 ms exposure time per well were acquired and the average GFP intensity per area of a HeLa cell was determined by using MetaXpress software. Mean GFP intensity of 300-500 cells was calculated using Excel. Normalized GFP intensity was calculated using the following formula: (Test compound−Background)/(Basal GFP intensity—Background). Where: Test compound is defined as Mean GFP intensity of Ub^G76V-GFP-expressing cells treated with the test compound. Background is defined as background GFP intensity of HeLa cells. Basal GFP intensity is defined as mean GFP intensity of Ub^G76V-GFP-expressing cells treated with DMSO. […] The percent of remaining k for each compound is calculated using the following formula: (Test compound/DMSO control)*100. Where: Test_compound is defined as k determined from wells containing test compound, DMSO control is defined as k determined from wells containing DMSO.

[2] = purified p97, ATP, 60 min room temperature, mean +/- standard error
[3] = Homo sapiens, HeLa, read-out: IC50 (μM) Ub^G76V-GFP turn over, Ub^G76V-GFP-expressing HeLa cells, degradation rate constant k from 90 to 180 min, mean +/- standard error
[4] = Homo sapiens, HeLa, read-out: IC50 (μM) Ub^G76V-GFP turn over, p97-dependent Ub^G76V-GFP degradation turn-over assay

Row | SMILES | IC50 (p97; [2]) | IC50 [1, 3] | further results
1 | Cc1cccc(CNc2nc(Nc3cccc(Cl)c3)nc3ccccc23)c1 [III-11] | 2.3 ± 0.6 µM | 9.7 ± 2.7 µM | –
2 | Fc1ccc(CNc2nc(-c3ccccc3)nc3ccccc23)cc1 [I-13] | 11 ± 3 µM | 19 ± 3 µM | –
3 | COc1ccccc1CNc1nc(NCc2ccccc2)c2ccccc2n1 [IV-10] | 3.6 ± 0.8 µM | 1.9 ± 0.2 µM | –
4 | COc1cccc2c(NCc3ccccn3)nc(N3CCOc4ccccc43)nc12 [XII-7] | 19 ± 5 µM | 15 ± 4 µM | –
5 | Clc1ccc(Nc2nc(NCc3ccccc3)c3ccccc3n2)cc1 [II-3] | 5.4 ± 2 µM | 5.9 ± 1.2 µM | –
6 | Fc1ccccc1-c1nc(NCc2ccccc2)c2ccccc2n1 [I-1] | 1.1 µM and 3 µM | 8 ± 1.7 µM | IC50 ([1]; read-out: IC50 (μM) Ub^G76V-GFP turn over, Ub^G76V-GFP-expressing HeLa cells, degradation rate constant k from 90 to 180 min, mean +/- standard error): 9 ± 1.3 µM
7 | Clc1cccc(Nc2nc(NCc3ccccc3Cl)c3ccccc3n2)c1 [III-7] | 4.7 ± 1.4 µM | 18 ± 5 µM | –
8 | N#CC(C(=O)COC(=O)CCC(=O)c1ccc2c(c1)OCCO2)=C1Nc2ccccc2N1 [XVIII] | 10 ± 4 µM | 6.3 ± 0.6 µM | –
9 | COc1ccc(Nc2nc(Nc3ccc(OC)cc3)c3ccccc3n2)cc1 [XXV-1] | – | – | IC50 (p97; p97 ATPase assay): 22 ± 4 µM; IC50 ([1]; Homo sapiens, HeLa, read-out: IC50 (μM) Ub^G76V-GFP turn over): 23 ± 3 µM
10 | COc1ccc(Cl)cc1Nc1nc(NCc2ccccc2)c2ccccc2n1 [V-10] | 1.1 ± 0.2 µM | 16 ± 6 µM | –
11 | COc1ccc(Nc2nc(N3CCN(c4ccc([N+](=O)[O-])cc4)CC3)nc3ccccc23)c(OC)c1 [XLIX] | – | – | IC50 (p97; p97 ATPase assay): 43 ± 13 µM; IC50 [1, 4]: 70 ± 16 µM
12 | COc1ccc(Nc2nc(NCc3ccccc3)c3ccccc3n2)cc1F [V-8] | 0.9 ± 0.1 µM | 4.7 ± 0.8 µM | –
13 | COc1cccc2c(NCc3ccccc3)nc(-n3cnc4ccccc43)nc12 [XI-1] | 3.3 ± 1.1 µM | 78 ± 45 µM | –
14 | COc1cccc2c(NCc3ccccc3)nc(N3CCN(C)CC3)nc12 [XI-4] | – | – | IC50 (p97; p97 ATPase assay): > 30 µM; IC50 [1, 4]: 45 ± 18 µM
15 | c1ccc(CNc2nc(N3CCc4ccccc43)nc3ccccc23)cc1 [VII-2] | 2 ± 0.5 µM | 11 ± 3 µM | –
16 | COc1ccc2nc(NCc3ccccc3)nc(NCc3ccccc3)c2c1 [VI-14] | 7.5 ± 1.1 µM | 8.6 ± 1.7 µM | –

Row | SMILES | IC50 (p97; [2]) | IC50 [1, 3] | further results
17 | Clc1cccc(Nc2nc(NCc3ccccc3Br)c3ccccc3n2)c1 [III-9] | 4 ± 1.7 µM | 12 ± 5 µM | –
18 | COc1cc2nc(NCc3ccccc3)nc(NCc3ccccc3)c2cc1OC [VI-4] | 4.4 ± 1.8 µM | 8.8 ± 1.5 µM | –
19 | Cc1ccc(F)cc1Nc1nc(NCc2ccccc2)c2ccccc2n1 [V-6] | 0.8 ± 0.1 µM | 5 ± 1 µM | –
20 | COc1cccc2c(NCc3cncs3)nc(N3CCOc4ccccc43)nc12 [XII-1] | – | – | IC50 (p97; p97 ATPase assay): 38 ± 7 µM; IC50 [1, 4]: 20 ± 3 µM
21 | Clc1ccccc1CNc1nc(NCc2ccccc2)c2ccccc2n1 [IV-7] | 5.3 ± 1.2 µM | 2.9 ± 0.9 µM | –
22 | COc1cccc2c(NCc3ccccc3)nc(N(C)Cc3ccccc3)nc12 [XI-12] | 7 ± 3 µM | > 20 µM | –
23 | c1ccc(CNc2nc(N3CCN(c4ccccc4)CC3)nc3ccccc23)cc1 [XLVII] | – | – | IC50 (p97; p97 ATPase assay): 34 ± 11 µM; IC50 [1, 4]: 35 ± 5 µM
24 | FC(F)(F)c1cc(CNc2nc(NCc3ccccc3)c3ccccc3n2)ccc1Cl [IV-18] | 4.7 ± 1 µM | 2.2 ± 0.4 µM | –
25 | COc1ccccc1Nc1nc(NCc2ccccc2)c2ccccc2n1 [II-11] | 2.2 ± 0.9 µM | 11 ± 3 µM | –
26 | COc1cccc2c(NCc3ccccc3)nc(N(C)c3ccccc3)nc12 [XI-9] | – | – | IC50 (p97; p97 ATPase assay): > 30 µM; IC50 [1, 4]: 9.2 ± 1.2 µM
27 | COc1cccc(Nc2nc(NCc3ccccc3)c3ccccc3n2)c1 [II-16] | 2.5 ± 0.2 µM | 4.3 ± 0.7 µM | –
28 | N#Cc1ccc2c(NCc3ccccc3)nc(NCc3ccccc3)nc2c1 [VI-8] | – | – | IC50 (p97; p97 ATPase assay): 25 ± 10 µM; IC50 [1, 4]: 21 ± 3 µM
29 | Brc1ccc(Nc2nc(NCc3ccccc3)c3ccccc3n2)cc1 [II-5] | 1.8 ± 0.4 µM | 6 ± 0.8 µM | –
30 | COc1ccc(Nc2nc(N3CCN(S(=O)(=O)c4ccc(C)cc4)CC3)nc3ccccc23)cc1 [XLVIII] | – | – | IC50 (p97; p97 ATPase assay): 22 ± 12 µM; IC50 [1, 4]: 39 ± 18 µM
31 | COc1ccc(F)cc1Nc1nc(NCc2ccccc2)c2ccccc2n1 [V-11] | 6.7 ± 3 µM | 9.3 ± 1 µM | –
